Assay results reported in patent US20210101899A1, “INHIBITORS OF MUTANT ISOCITRATE DEHYDROGENASES AND COMPOSITIONS AND METHODS THEREOF” (IsoCure Biosciences Inc., priority 2016, published 2021).

Tests used:
Type in all cases: biochemical
IDH1 = IDH1 (Homo sapiens, UniProt O75874); test: IDH enzyme assay, NADPH production by diaphorase/resazurin coupled detection; conditions: IDH1 WT; pre-incubated with enzyme for 1 h at room temperature; 65 μM Isocitrate+50 μM NADP; 10-dose, 3-fold dilution from 10 μM; read-out: Compound IC50 (nM) IDH1
Protocol: (§1) Compounds were tested against 3 enzymes, as provided below. Compounds were tested in 10-dose IC50 mode with 3-fold serial dilution at a starting concentration of 10 μM. Control Compounds were tested in 10-dose IC50 mode with 3-fold serial dilution starting at 1 mM or 10 mM. Assay Format: The production or depletion of NADPH by IDH enzymes was measured by diaphorase/resazurin coupled detection. Fluorescence measurement: Ex/Em=535/590 by EnVision. Compounds were pre-incubated with enzyme for 1 h at room temperature. Standard substrate: 1500 μM a-Ketoglutarate+15 μM NADPH for IDH1 (R132H). 500 μM a-Ketoglutarate+15 μM NADPH for IDH1 (R132C). 65 μM Isocitrate+50 μM NADP for IDH1.

IDH1 (R132C) = IDH1 (R132C) (Homo sapiens, UniProt O75874, R132C); test: IDH enzyme assay, NADPH depletion by diaphorase/resazurin coupled detection; conditions: pre-incubated with enzyme for 1 h at room temperature; 500 μM a-Ketoglutarate+15 μM NADPH; 10-dose, 3-fold dilution from 10 μM; read-out: Compound IC50 (nM) IDH1 (R132C)
Protocol: as §1

IDH1 (R132H) = IDH1 (R132H) (Homo sapiens, UniProt O75874, R132H); test: as above; conditions: pre-incubated with enzyme for 1 h at room temperature; 1500 μM a-Ketoglutarate+15 μM NADPH; 10-dose, 3-fold dilution from 10 μM; read-out: Compound IC50 (nM) IDH1 (R132H)
Protocol: as §1

IDH1 (R132H), sequence (O75874 whole entry R132H): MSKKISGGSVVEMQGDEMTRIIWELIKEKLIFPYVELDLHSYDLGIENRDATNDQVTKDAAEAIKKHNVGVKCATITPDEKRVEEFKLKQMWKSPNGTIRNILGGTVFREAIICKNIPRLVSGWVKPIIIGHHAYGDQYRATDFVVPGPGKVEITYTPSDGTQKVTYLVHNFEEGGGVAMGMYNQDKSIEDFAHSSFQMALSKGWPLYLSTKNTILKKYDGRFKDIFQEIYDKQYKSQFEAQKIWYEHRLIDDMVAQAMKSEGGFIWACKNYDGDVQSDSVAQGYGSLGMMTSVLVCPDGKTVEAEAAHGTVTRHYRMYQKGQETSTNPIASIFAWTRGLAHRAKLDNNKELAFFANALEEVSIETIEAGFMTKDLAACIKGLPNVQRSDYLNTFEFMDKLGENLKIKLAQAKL
IDH1, sequence (O75874 whole entry): as the sequence (O75874 whole entry R132H) above, with H132R counted along it
IDH1 (R132C), sequence (O75874 whole entry R132C): as the sequence (O75874 whole entry R132H) above, with H132C counted along it

| SMILES | IC50 (IDH1) | IC50 (IDH1 (R132C)) | IC50 (IDH1 (R132H)) |
| --- | --- | --- | --- |
| C=CC(=O)NC1CC(NC(=O)c2nn(Cc3ccc(F)cc3)c3c2CN(C(=O)c2ccc[nH]2)CC3C)C1 (stereo not drawn) [ISO-2-20, N-(3-acrylamidocyclobutyl)-1-(4-fluorobenzyl)-7-methyl-5-(1H-pyrrole-2-carbonyl)-4,5,6,7-tetrahydro-1H-pyrazolo[4,3-c]pyridine-3-carboxamide] | > 10000 nM | 7370 nM | 5480 nM |
| C=CC(=O)Nc1ccc(NC(=O)c2nn(Cc3ccc(F)cc3)c3c2CN(C(=O)c2ccc[nH]2)CC3C)cc1 (stereo not drawn) [ISO-2-25, N-(4-acrylamidophenyl)-1-(4-fluorobenzyl)-7-methyl-5-(1H-pyrrole-2-carbonyl)-4,5,6,7-tetrahydro-1H-pyrazolo[4,3-c]pyridine-3-carboxamide] | 5740 nM | 0.8 nM | 0.6 nM |
| C=CC(=O)Nc1ccc(NC(=O)c2nn(Cc3ccc(F)cc3)c3c2CN(C(=O)c2ccc[nH]2)C[C@H]3C)cc1 [ISO-2-25-R] | 2140 nM | 21 nM | 10 nM |
| C=CC(=O)N1CCC(NC(=O)c2nn(Cc3ccc(F)cc3)c3c2CN(C(=O)c2ccc[nH]2)CC3C)CC1 (stereo not drawn) [ISO-2-26, N-(1-acryloylpiperidin-4-yl)-1-(4-fluorobenzyl)-7-methyl-5-(1H-pyrrole-2-carbonyl)-4,5,6,7-tetrahydro-1H-pyrazolo[4,3-c]pyridine-3-carboxamide] | > 10000 nM | > 10000 nM | > 10000 nM |
| C=CC(=O)Nc1cccc(Cn2nc(C(=O)Nc3cccc(C)c3)c3c2C(C)CN(C(=O)c2ccc[nH]2)C3)c1 (stereo not drawn) [ISO-2-27, 1-(3-acrylamidobenzyl)-7-methyl-5-(1H-pyrrole-2-carbonyl)-N-(m-tolyl)-4,5,6,7-tetrahydro-1H-pyrazolo[4,3-c]pyridine-3-carboxamide] | > 10000 nM | 127 nM | 25 nM |
| C=CC(=O)Nc1ccc(Cn2nc(C(=O)Nc3cccc(C)c3)c3c2C(C)CN(C(=O)c2ccc[nH]2)C3)cc1C (stereo not drawn) [ISO-2-28, 1-(4-acrylamido-3-methylbenzyl)-7-methyl-5-(1H-pyrrole-2-carbonyl)-N-(m-tolyl)-4,5,6,7-tetrahydro-1H-pyrazolo[4,3-c]pyridine-3-carboxamide] | > 10000 nM | 5550 nM | 149 nM |
| C=CC(=O)Nc1cc(NC(=O)c2nn(Cc3ccc(F)cc3)c3c2CN(C(=O)c2ccc[nH]2)C[C@H]3C)ccc1OC [ISO-2-30-R] | 2210 nM | 14 nM | 6 nM |
